Data: patent US10227370B2, “Heparan sulfate/heparin mimetics with anti-chemokine and anti-inflammatory activity” (California Institute of Technology, priority 2013, dated 2019)

Assays:
Type in all cases: biochemical
[1] = system: citrated human plasma; assay: Activated partial thromboplastin time (APTT) analysis
Description: Plasma/anticoagulant samples were prepared by mixing 300 μL of the heparin standard or glycopolymer (150 μg/mL) in 0.9% saline and 2.7 mL of citrated human plasma. The tube was inverted 3 times to mix the sample thoroughly. Samples were analyzed by the UCLA Clinical & Translational Research Laboratory using a Sysmex® CA-1500 Coagulation Analyzer (Siemens AG, Erlangen, Germany). Clotting time in the absence of an anticoagulant was determined using 0.9% saline solution water (300 μl). Each clotting assay was performed in triplicate.

[2] = system: citrated human plasma; assay: Prothrombin time (PT) analysis; details: 150 μg/mL stock, 300 μL in 2.7 mL citrated human plasma; saline control 13.3 s
Description: Samples were prepared by mixing 300 μL of the heparin standard or glycopolymer (150 μg/mL) in 0.9% saline with 2.7 mL citrated human plasma. The tube was inverted 3 times to mix the sample thoroughly. Samples were analyzed by the UCLA Clinical & Translational Research Laboratory using a Sysmex® CA-1500 Coagulation Analyzer (Siemens AG, Erlangen, Germany). Clotting time in the absence of an anticoagulant was determined using 0.9% saline solution water (300 μL). Each clotting assay was performed in triplicate.

[3] = biological target: T1, FIIa (Homo sapiens, UniProt P01008); assay: Chromogenic assay of anti-FIIa activity in the presence of ATIII, Example 9; details: FIG. 12, FIG. 13B
T1 construct: purchased
Description: All reagents were prepared according to the manufacturer's instructions and incubated at 37° C. for 15 min. Varying concentrations of heparin, low molecular weight heparin, or glycopolymers (0.0005-500 μg/mL; 40 μL) and ATIII (0.01 IU; 40 μL) were added to a microcentrifuge tube, mixed, and incubated at 37° C. for 2 min. To this, FIIa (1.2 nkat; 40 μL) was added and was incubated at 37° C. for exactly 2 min (stage 1), then FIIa chromogenic substrate (0.05 mmol; 40 μL) was added. Exactly 2 min later (stage 2), the reaction was stopped by introducing citric acid (240 μL; 20 g/L). Absorbance at 405 nm was measured. The sample blank was obtained by mixing the reagents in reverse order from that of the test, i.e. citric acid, […], ATIII, and heparinized sample. The sample blank value was deducted from the absorbance measured for the corresponding assay.

[4] = system: FXa; assay: Chromogenic assay of anti-FXa activity in the presence of ATIII, Example 9
Description: All reagents were prepared according to the manufacturer's instructions and incubated at 37° C. for 15 min. Varying concentrations of heparin, low molecular weight heparin, Arixtra® or glycopolymers (0.0005-500 μg/mL; 40 μL) and ATIII (0.04 IU; 40 μL) were added to a microcentrifuge tube, mixed, and incubated at 37° C. for 2 min. To this, FXa (0.32 μg; 40 μL) was added and was incubated at 37° C. for exactly 2 min (stage 1), then FXa chromogenic substrate (48 μmol; 40 μL) was added. Exactly 2 min later (stage 2), the reaction was stopped by introducing citric acid (240 μL; 20 g/L solution). Absorbance at 405 nm was measured on a Uvikon XL spectrophotometer. The sample blank was obtained by mixing the reagents in reverse order from that of the test, i.e. citric acid, FXa substrate, FXa, ATIII, and heparinized sample. The sample blank value was deducted from the absorbance measured for the corresponding assay.

CO[C@H]1O[C@H](COS(=O)(=O)O)[C@@H](O[C@@H]2O[C@@H](C(=O)O)[C@@H](O[C@H]3O[C@H](COS(=O)(=O)O)[C@@H](O[C@@H]4O[C@H](C(=O)O)[C@@H](O[C@H]5O[C@H](COS(=O)(=O)O)[C@@H](O)[C@H](O)[C@H]5NS(=O)(=O)O)[C@H](O)[C@H]4O)[C@H](OS(=O)(=O)O)[C@H]3NS(=O)(=O)O)[C@H](O)[C@H]2OS(=O)(=O)O)[C@H](O)[C@H]1NS(=O)(=O)O [Arixtra]
APTT ([1]; 150 μg/mL stock, 300 μL in 2.7 mL citrated human plasma, saline control 31.2 s): 78.3 ± 0.4 s | effect on APTT and PT for clotting compared to the saline control ([1]; same concentration, citrated human plasma): increased only the APTT | PT [2]: 15.1 ± 0.3 s | anti-FIIa activity [3]: no appreciable activity | IC50 [4]: 11 ± 0.1 nM
